One experiment concerns HCT116. Kind of experiment: MTT assay, survival of human colorectal cancer cells HCT116. It is filed as cell-based. As to conditions: HCT-116, 48 h, mean ± SD, read-out: Human cell lines HCT116 IC50(μM ± SD). The procedure:
The effects on cell viability of the HSP90/HDAC6 dual inhibitors as described in Synthesis Examples (such as Compounds 63, 64, and 66 to 76) were evaluated. Cells were seeded in 96-well plates (5000 cells/well). The next day, the serially diluted drugs were added into the wells and incubated at 37° C. for 48 h. Cell viability was measured by the MTT assay and is expressed as percentages of surviving drug-treated cells relative to untreated control cells. The IC50 was calculated by non-linear regression analysis.
The inhibitory effect of the HSP90/HDAC6 dual inhibitors as described in Synthesis Examples on the survival rate of human colorectal cancer cells HCT116 is evaluated using MTT assay.
Background: Tetrazolium assays rely on reduction of a dye to a coloured formazan, in cell work by metabolically active cells.

Another experiment deals with T1, HSP90α (Homo sapiens, UniProt P07900).
T1 construct: Reaction Biology Corporation (ran the assay as a service)
As to the kind of experiment: HSP90 inhibition assay, FITC-geldanamycin competition fluorescence polarization, HSP90α. The following applies: FITC-GM competition. In kind it is binding. In general terms: In fluorescence polarisation assays a small probe gives low polarisation when free and higher when bound to something large.

In a further experiment the target is T2, HDAC3 (Homo sapiens, UniProt O15379).
T2 construct: Reaction Biology Corporation (ran the assay as a service)
As to the kind of experiment: HDAC enzymes inhibition assay (Reaction Biology), HDAC3. It is filed as biochemical. The following applies: 10-dose, 3-fold dilution from 10 μM, single experiment.

The target in a further experiment is T3, HSP90β (Homo sapiens, UniProt P08238).
T3 construct: Reaction Biology Corporation (ran the assay as a service)
As to the kind of experiment: HSP90 inhibition assay, FITC-geldanamycin competition fluorescence polarization, HSP90β. As to conditions: FITC-GM competition. It is filed as binding.

For another experiment, the target named is T4, HDAC1 (Homo sapiens, UniProt Q13547).
T4 construct: Reaction Biology Corporation (ran the assay as a service)
Kind of experiment: HDAC enzymes inhibition assay (Reaction Biology), HDAC1. In kind it is biochemical. As to conditions: 10-dose, 3-fold dilution from 10 μM, single experiment.

A further experiment has as its target T5, HDAC6 (Homo sapiens, UniProt Q9UBN7).
T5 construct: Reaction Biology Corporation (ran the assay as a service)
T5 sequence (Q9UBN7 1-1215): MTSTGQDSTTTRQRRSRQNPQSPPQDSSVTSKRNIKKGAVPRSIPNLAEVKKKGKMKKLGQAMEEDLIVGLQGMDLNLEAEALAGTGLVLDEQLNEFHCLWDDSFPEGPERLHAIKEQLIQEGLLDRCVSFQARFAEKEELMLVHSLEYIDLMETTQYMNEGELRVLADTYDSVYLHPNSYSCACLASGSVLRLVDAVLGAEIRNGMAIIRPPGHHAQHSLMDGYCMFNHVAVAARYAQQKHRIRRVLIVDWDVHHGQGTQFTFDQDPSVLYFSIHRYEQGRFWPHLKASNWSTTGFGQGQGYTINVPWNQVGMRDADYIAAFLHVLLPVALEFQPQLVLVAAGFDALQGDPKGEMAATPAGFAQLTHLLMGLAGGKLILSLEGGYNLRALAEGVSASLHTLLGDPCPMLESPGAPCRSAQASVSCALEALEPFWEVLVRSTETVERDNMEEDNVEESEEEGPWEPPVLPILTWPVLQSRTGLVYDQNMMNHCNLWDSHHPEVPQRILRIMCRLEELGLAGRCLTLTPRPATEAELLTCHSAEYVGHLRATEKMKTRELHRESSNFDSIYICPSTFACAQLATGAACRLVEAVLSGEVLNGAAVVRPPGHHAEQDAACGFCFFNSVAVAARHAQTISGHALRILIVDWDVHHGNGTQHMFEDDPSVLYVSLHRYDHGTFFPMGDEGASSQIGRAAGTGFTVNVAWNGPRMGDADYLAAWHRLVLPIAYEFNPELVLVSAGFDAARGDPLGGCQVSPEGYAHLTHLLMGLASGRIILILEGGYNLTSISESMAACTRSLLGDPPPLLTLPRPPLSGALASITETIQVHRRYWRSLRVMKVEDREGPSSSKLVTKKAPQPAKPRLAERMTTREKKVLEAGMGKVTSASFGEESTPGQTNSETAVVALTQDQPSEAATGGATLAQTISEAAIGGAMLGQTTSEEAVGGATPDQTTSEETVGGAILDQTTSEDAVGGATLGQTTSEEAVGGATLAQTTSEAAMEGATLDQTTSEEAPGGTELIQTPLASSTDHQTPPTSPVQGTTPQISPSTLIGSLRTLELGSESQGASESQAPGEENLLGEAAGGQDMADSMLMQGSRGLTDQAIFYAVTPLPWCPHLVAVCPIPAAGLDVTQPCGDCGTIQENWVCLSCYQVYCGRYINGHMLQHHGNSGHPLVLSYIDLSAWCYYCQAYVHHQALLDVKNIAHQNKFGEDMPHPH
As to the kind of experiment: HDAC enzymes inhibition assay (Reaction Biology), HDAC6. As to conditions: 10-dose, 3-fold dilution from 10 μM, single experiment. It is filed as biochemical.

T3 sequence (P08238 whole entry): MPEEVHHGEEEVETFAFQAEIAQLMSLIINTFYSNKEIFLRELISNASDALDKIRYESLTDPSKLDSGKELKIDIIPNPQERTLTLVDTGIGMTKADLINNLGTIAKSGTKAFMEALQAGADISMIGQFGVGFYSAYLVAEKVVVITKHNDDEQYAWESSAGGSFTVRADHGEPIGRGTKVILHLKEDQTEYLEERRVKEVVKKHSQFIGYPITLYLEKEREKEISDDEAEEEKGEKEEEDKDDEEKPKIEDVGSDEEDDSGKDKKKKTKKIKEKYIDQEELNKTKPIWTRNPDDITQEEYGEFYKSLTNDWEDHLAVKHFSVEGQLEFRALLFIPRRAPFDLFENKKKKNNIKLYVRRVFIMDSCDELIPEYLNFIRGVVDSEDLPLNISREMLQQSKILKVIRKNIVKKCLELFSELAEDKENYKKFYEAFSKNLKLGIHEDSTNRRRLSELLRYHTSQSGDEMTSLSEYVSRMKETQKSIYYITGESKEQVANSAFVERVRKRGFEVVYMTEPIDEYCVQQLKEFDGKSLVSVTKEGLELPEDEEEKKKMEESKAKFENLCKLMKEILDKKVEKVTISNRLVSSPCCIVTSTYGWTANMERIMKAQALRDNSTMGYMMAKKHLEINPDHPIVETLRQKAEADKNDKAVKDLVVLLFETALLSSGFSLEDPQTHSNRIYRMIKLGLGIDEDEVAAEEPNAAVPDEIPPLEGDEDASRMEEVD
T2 sequence (O15379 whole entry): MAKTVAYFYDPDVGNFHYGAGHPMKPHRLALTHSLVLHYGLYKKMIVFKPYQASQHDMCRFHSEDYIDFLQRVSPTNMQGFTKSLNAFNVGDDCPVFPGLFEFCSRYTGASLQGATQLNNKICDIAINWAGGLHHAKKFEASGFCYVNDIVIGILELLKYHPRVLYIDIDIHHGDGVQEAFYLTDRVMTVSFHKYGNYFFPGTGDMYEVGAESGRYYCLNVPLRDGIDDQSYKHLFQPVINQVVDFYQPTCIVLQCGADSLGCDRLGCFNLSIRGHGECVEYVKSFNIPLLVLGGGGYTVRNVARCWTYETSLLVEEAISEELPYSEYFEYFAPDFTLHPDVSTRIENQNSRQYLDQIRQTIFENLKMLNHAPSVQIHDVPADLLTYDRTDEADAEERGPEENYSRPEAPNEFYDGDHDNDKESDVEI
T2 sequence (Q9Y618 395-489 partner limits assumed): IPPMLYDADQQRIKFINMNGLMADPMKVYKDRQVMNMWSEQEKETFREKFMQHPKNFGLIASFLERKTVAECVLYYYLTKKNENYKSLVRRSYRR
T4 sequence (Q13547 whole entry): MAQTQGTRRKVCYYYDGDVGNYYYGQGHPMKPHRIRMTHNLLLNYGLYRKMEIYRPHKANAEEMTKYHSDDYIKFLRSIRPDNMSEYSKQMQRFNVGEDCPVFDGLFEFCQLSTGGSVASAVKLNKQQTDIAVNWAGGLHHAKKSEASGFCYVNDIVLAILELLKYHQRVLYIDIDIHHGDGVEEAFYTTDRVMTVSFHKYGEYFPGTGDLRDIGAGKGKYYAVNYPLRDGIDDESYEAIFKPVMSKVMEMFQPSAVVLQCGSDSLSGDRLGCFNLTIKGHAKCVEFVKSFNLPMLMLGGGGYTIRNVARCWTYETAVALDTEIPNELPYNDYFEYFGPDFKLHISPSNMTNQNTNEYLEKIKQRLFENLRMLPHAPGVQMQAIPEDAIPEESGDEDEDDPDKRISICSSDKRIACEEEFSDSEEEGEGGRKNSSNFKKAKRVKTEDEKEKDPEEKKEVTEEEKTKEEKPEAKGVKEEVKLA

Take `CC(C)c1cc(C(=O)N(C)Cc2ccc(C(=O)NO)cc2)c(O)cc1O` [Compound 63, 2,4-dihydroxy-N-(4-(hydroxycarbamoyl)benzyl)-5-isopropyl-N-methylbenzamide]: the IC50 (in general, the midpoint of a concentration-inhibition curve) amounted to 1.09 ± 0.08 µM with HCT116; 25.2 nM at HSP90α; 3620 nM against HDAC3; 38.8 nM at HSP90β; 1760 nM at HDAC1; 5.93 nM against HDAC6.

Take `CCN(Cc1ccc(C(=O)NO)cc1)C(=O)c1cc(C(C)C)c(O)cc1O` [Compound 64, N-ethyl-2,4-dihydroxy-N-(4-(hydroxycarbamoyl)benzyl)-5-isopropylbenzamide]: the IC50 in the experiment on HCT116 is 3.69 ± 0.09 µM; at HSP90α, 93.9 nM; against HDAC3, greater than 10000 nM; at HSP90β, 190 nM; against HDAC1, 5230 nM; against HDAC6, 23 nM.

Take `CC(C)c1cc(C(=O)N(Cc2ccc(C(=O)NO)cc2)c2ccccc2)c(O)cc1O` [Compound 66, 2,4-dihydroxy-N-(4-(hydroxycarbamoyl)benzyl)-5-isopropyl-N-phenylbenzamide]: the concentration for half-maximal inhibition (IC50) with HCT116 was 0.9 ± 0.09 µM; on HSP90α, 54.5 nM; against HDAC3, 4740 nM; on HSP90β, 200 nM; at HDAC1, 3680 nM; against HDAC6, 23.9 nM.

`CC(C)c1cc(C(=O)N(Cc2ccc(C(=O)NO)cc2)c2ccc(F)cc2)c(O)cc1O` [Compound 67, N-(4-fluorophenyl)-2,4-dihydroxy-N-(4-(hydroxycarbamoyl)benzyl)-5-isopropylbenzamide]: the IC50 in the experiment with HCT116 stood at 4.61 ± 0.11 µM; at HSP90α it was 40.8 nM; against HDAC3, 3140 nM; on HSP90β it was 103 nM; on HDAC1, 1690 nM; at HDAC6, 22.9 nM.

Consider `CC(C)c1cc(C(=O)N(Cc2ccc(C(=O)NO)cc2)c2ccc(Cl)cc2)c(O)cc1O` [Compound 68, N-(4-chlorophenyl)-2,4-dihydroxy-N-(4-(hydroxycarbamoyl)benzyl)-5-isopropylbenzamide], for which the IC50 in the experiment with HCT116 is 5.28 ± 0.92 µM; at HSP90α, 59.9 nM; on HDAC3, 3030 nM; at HSP90β, 159 nM; against HDAC1, 1810 nM; on HDAC6, 17.2 nM.

Turning to `CC(C)c1cc(C(=O)N(Cc2ccc(C(=O)NO)cc2)c2ccc(I)cc2)c(O)cc1O` [Compound 69, 2,4-dihydroxy-N-(4-(hydroxycarbamoyl)benzyl)-N-(4-iodophenyl)-5-isopropylbenzamide], the half-maximal inhibitory concentration (IC50) is 1.16 ± 0.01 µM in the experiment with HCT116; 91.4 nM at HSP90α; 2170 nM on HDAC3; 272 nM at HSP90β; 1290 nM on HDAC1; 9.17 nM against HDAC6.

As for `CC(C)c1cc(C(=O)N(Cc2ccc(C(=O)NO)cc2)c2ccc3c(c2)OCO3)c(O)cc1O` [Compound 70, N-(benzo[d][1,3]dioxol-5-yl)-2,4-dihydroxy-N-(4-(hydroxycarbamoyl)benzyl)-5-isopropylbenzamide], the IC50 worked out at 0.25 ± 0.04 µM with HCT116; 39.9 nM on HSP90α; 2200 nM on HDAC3; 95.6 nM at HSP90β; 1120 nM at HDAC1; 12.9 nM at HDAC6.

As to `CC(C)c1cc(C(=O)N(Cc2ccc(C(=O)NO)cc2)c2ccc(N3CCOCC3)cc2)c(O)cc1O` [Compound 71, 2,4-dihydroxy-N-(4-(hydroxycarbamoyl)benzyl)-5-isopropyl-N-(4-morpholinophenyl)benzamide], the IC50 in the experiment on HCT116 was determined as 0.47 ± 0.02 µM; on HSP90α, 16.3 nM; against HDAC3, 691 nM; on HSP90β, 18.7 nM; against HDAC1, 275 nM; against HDAC6 it was 16 nM.

On to `CC(C)c1cc(C(=O)N(Cc2ccc(C(=O)NO)cc2)c2ccc(N(C)C)cc2)c(O)cc1O` [Compound 72, N-(4-(dimethylamino)phenyl)-2,4-dihydroxy-N-(4-(hydroxycarbamoyl)benzyl)-5-isopropylbenzamide], for which the IC50 with HCT116 amounted to 0.9 ± 0.18 µM; on HSP90α, 32.2 nM; against HDAC3, 2190 nM; on HSP90β, 117 nM; against HDAC1 it was 1070 nM; against HDAC6, 13.7 nM.

On to `CC(C)c1cc(C(=O)N(Cc2ccc(C(=O)NO)cc2)c2ccc(N3CCN(C)CC3)cc2)c(O)cc1O` [Compound 73, 2,4-dihydroxy-N-(4-(hydroxycarbamoyl)benzyl)-5-isopropyl-N-(4-(4-methylpiperazin-1-yl)phenyl)benzamide], for which the IC50 in the experiment on HCT116 is 1.25 ± 0.13 µM; at HSP90α, 36.7 nM; on HDAC3 it was 645 nM; at HSP90β it was 60.5 nM; against HDAC1, 173 nM; at HDAC6, 5.88 nM.

As for `CC(C)c1cc(C(=O)N(Cc2ccc(C(=O)NO)cc2)c2ccc(N3CCCCC3)cc2)c(O)cc1O` [Compound 74, 2,4-dihydroxy-N-(4-(hydroxycarbamoyl)benzyl)-5-isopropyl-N-(4-(piperidin-1-yl)phenyl)benzamide], the IC50 with HCT116 was 4.83 ± 0.47 µM; on HSP90α, 98.7 nM; against HDAC3 it was 2700 nM; on HSP90β it was 373 nM; at HDAC1, 1230 nM; against HDAC6, 70.5 nM.

For the compound `CC(C)c1cc(C(=O)N(Cc2ccc(C(=O)NO)cc2)c2ccc(O)cc2)c(O)cc1O` [Compound 76, 2,4-Dihydroxy-N-(4-hydroxycarbamoyl-benzyl)-N-(4-hydroxy-phenyl)-5-isopropyl-benzamide], the IC50 in the experiment on HCT116 was determined as 0.83 ± 0.01 µM; at HSP90α, 35 nM; against HDAC3, 2840 nM; on HSP90β, 51.8 nM; against HDAC1, 961 nM; at HDAC6, 6.54 nM.

Values taken from patent US20240398823A1, “DUAL INHIBITOR OF HISTONE DEACETYLASE 6 AND HEAT SHOCK PROTEIN 90” (TAIPEI MEDICAL UNIVERSITY, priority 2021, published 2024).
